{"source": "patent US20260021167A1", "about": "“COMPOSITIONS AND METHODS FOR TREATING OR PREVENTING NEURODEGENERATIVE DISEASES” (Delaware State University, priority 2022, published 2026)", "key": {"N27 cells [1]": {"tested_on": "N27 cells", "assay": "ROS level (CellROX deep red) after PFF treatment", "format": "cell-based, rat", "conditions": "compared to PFF only control", "procedure": "ROS Levels and Thioflavin-T Assessment. The reactive oxygen species (ROS) is a released byproduct during oxidative stress. On the other hand, thioflavin-T is an assay used to understand the level of protein aggregation that can be detrimental to cell survival. In order to assess the level of oxidative stress, all the SENP-1 inhibitors treated cells were incubated in media containing 5 μg/mL of the ROS reagent CellROX deep red reagent (C10422, Thermo Fisher Scientific) and 25 μg/mL of thioflavin-T reagent (CAS: 2390-54-7, Acros Organics) at 37° C. for 30 min. The cells were then washed 3 times with warm phosphate-buffered saline (PBS) without Ca^2+ or Mg^2+ (137 mM NaCl, 2.7 mM KCl, 4.3 mM Na2HPO4, and 1.47 mM KH2PO4), and several images from each well were collected using EVOS FL Cell Imaging Systems (Invitrogen, MA, USA). A minimum of 2 wells were dedicated to each group, and the experiments were repeated 3-4 times independently (total replicated: n=8-10/group). The intensity of red fluorescence corresponding to ROS levels and green labels corresponding to protein aggregation was analyzed by blinded raters using ImageJ."}, "[2]": {"tested_on": "phosphorylated Ser-129-α-synuclein", "assay": "Immunohistochemistry of phosphorylated Ser-129-α-synuclein in brain sections of PFF-injected mice", "format": "in vivo, mouse"}, "PFF-injected old mice": {"tested_on": "PFF-injected old mice", "assay": "Rotarod in PFF-injected mice", "format": "in vivo, mouse", "conditions": "10 and/or 50 mg/kg oral, vs PFF only", "procedure": "(§1) A mouse model of Parkinson's disease is C57BL/6 male or female mice (50% each) injected with 5 μg of mouse PFF at 12 months old, followed by a treatment below for 6-7 weeks: • 1) without PFF injection, followed by vehicle (control, n=7); • 2) PFF injection, followed by vehicle (PFF only: control, n=8); • 3) PFF injection, followed by daily 10 mg/kg Momordin gavage (n=7-8); • 4) PFF injection, followed by daily 50 mg/kg Momordin gavage (n=7-8).\nRotarod. Rotarod is a behavioral test used to measure motor functionality. For three consecutive days, all the mice were habituated on the rotating rod comprising a horizontal plane rotating at a speed of 4 rotations per minute (rpm), increasing by 2 rpm every minute for 10 min or until they fell off the rod at 20 rpm. The data were collected over three consecutive days where the animals were placed on the rod at 4 rpm, and the rod increased the speed by 1 rpm every 16 sec for 10 min or until the mouse fell off. A longer latency to fall indicates an improved motor functionality."}, "SUMO-1 [3]": {"tested_on": "SUMO-1", "assay": "Western blot of SUMO-1 in brain tissue extracts of PFF-injected mice", "format": "in vivo, mouse", "conditions": "vs PFF only", "procedure": "as §1\nImmunoblot Analyses. A total of three protein extractions were performed. In the first extraction, a gentle RIPA buffer containing the low concentration of detergent (25 mM Tris-HCL, 150 mM NaCl, 1% NP-40, 1% sodium deoxycholate and 0.1% SDS) was added with phosphatase inhibitors (100 μL for 10 mL) and 5 mM EDTA. The mixture was sonicated and centrifuged at 14,000 rpm for 10 min. The supernatant was collected for measuring the levels of phosphorylated α-syn, SENP-1 or SUMO-1 conjugated proteins for different groups. […] The primary antibodies pertaining to each protein analyzed were diluted at 1:1000 (p-Ser-129-α-synuclein, Cell signaling; SENP-1, SAB4501345, EMD) and incubated at 4° C. overnight. […] ImageJ was used to analyze specific bands on each blot and measured against the loading control (β-actin) for normalizing each band intensity."}, "SUMO-1 [4]": {"tested_on": "SUMO-1", "assay": "Western blot of SUMO-1 level in PFF-exposed N27p cells", "format": "cell-based, rat", "conditions": "PFF exposure, compared with PFF only", "source_text": "A) The RNA interference suppressed the expression level of SENP-1, which enhanced SUMO-1 level. […] One-Way ANOVA, Dunnett's test was applied for statistical analysis in comparison with PFF only (#). *: p<0.05, **: p<0.01, p<0.001 and n.s.: not significant."}, "N27 cells [5]": {"tested_on": "N27 cells", "assay": "Cytotoxicity (LDH) assay after PFF exposure", "format": "cell-based, rat", "conditions": "N27 cells, PFF treatment; compared to PFF only control", "procedure": "Cytotoxicity Assay. The lactate dehydrogenase (LDH) is a cytosolic enzyme that is released into the media during cellular stress and increased levels of cytotoxicity. The cytotoxicity assay was measured using reagents from the Pierce LDH Cytotoxicity Assay Kit (88954, Thermo). For the assay, 50 μL of media from each well after PFF exposure, followed by SENP-1 treatment, was put into wells of a new 96-well plate. The LDH reagents were prepared according to the protocol provided, and 50 μL of the LDH reagent was mixed into each well. The total 100 μL of media containing LDH and its reagent were incubated at 37° C. for 30 min, followed by the application of a stop solution. The mixture was analyzed using a spectrophotometer (SpectraMax M5e, Molecular devices) at 490 nm with a reference wavelength of 680 nm.\nIn this study, numerous commercially available SENP-1 inhibitors were tested for the recovery effects from preformed fibrils of alpha-synuclein (PFF)-induced PD models in vitro. The screening process includes several SENP-1 inhibitors, including specific SENP-1 inhibitors (e.g., SUMO-2 Aldehyde, Momordin lc, streptonigrin, hinokiflavonem, and siRNAs of SENP-1) and nonspecific SENP-1 inhibitors (e.g., oleanolic acid, gallic acid), in N27 dopaminergic cells after the exposure of PFF for 24 hrs."}, "protein aggregates": {"tested_on": "protein aggregates", "assay": "Thioflavin-T protein aggregation in brain sections of PFF-injected mice", "format": "in vivo, mouse"}, "[6]": {"conditions": "both 10 and 50 mg/kg oral, PFF-injected mice, vs PFF only"}}, "note": "Entries after “also recorded” stand apart in the source; their conditions may differ."}
{"smiles": "CC1(C)CC[C@]2(C(=O)O)CC[C@]3(C)C(=CC[C@@H]4[C@@]5(C)CC[C@H](O[C@@H]6O[C@H](C(=O)O)[C@@H](O)[C@H](O[C@@H]7OC[C@@H](O)[C@H](O)[C@H]7O)[C@H]6O)C(C)(C)[C@@H]5CC[C@]43C)[C@@H]2C1", "note": "[Momordin lc]", "values": [{"measurement": "level of ROS", "setting": "N27 cells [1]", "result": "reduced the level of ROS"}, {"measurement": "accumulation of phosphorylated alpha-synuclein in multiple brain regions", "setting": "[2]; 10 or 50 mg/kg oral for 6-7 weeks, 15-16 month-old mice, 3-4 months after PFF injection", "result": "sufficient to prevent the accumulation; also recorded: effective to prevent the accumulation"}, {"measurement": "level of phospho-α-synuclein in the SNc (IHC)", "setting": "[2]; [6]", "result": "significantly reduced"}, {"measurement": "level of phospho-α-synuclein in the striatum (IHC)", "setting": "[2]; [6]", "result": "significantly reduced"}, {"measurement": "mobility on rotarod", "setting": "PFF-injected old mice", "result": "enhances the mobility on rotarod"}, {"measurement": "level of SUMO-1 in the MB (Western blot, tissue extracts)", "setting": "SUMO-1 [3]; midbrain", "result": "enhanced level of SUMO-1"}, {"measurement": "level of SUMO-1 in the STR (Western blot, tissue extracts)", "setting": "SUMO-1 [3]; striatum", "result": "enhanced level of SUMO-1"}, {"measurement": "level of SUMO-1 (Western blot)", "setting": "SUMO-1 [4]", "result": "increased level of SUMO-1"}, {"measurement": "cytotoxicity derived from PFF (LDH assay)", "setting": "N27 cells [5]", "result": "significantly reduced the cytotoxicity"}, {"measurement": "level of alpha-synuclein accumulation/aggregation in Thioflavin-T staining in various brain regions", "setting": "protein aggregates; PFF injection, mouse brains", "result": "reduced the level of alpha-synuclein accumulation/aggregation"}, {"measurement": "level of protein aggregates (Thioflavin-T) in the SNc", "setting": "protein aggregates; [6]", "result": "significantly reduced"}, {"measurement": "level of protein aggregates (Thioflavin-T) in the striatum", "setting": "protein aggregates; [6]", "result": "significantly reduced"}]}
